Measurements from patent US20240382471A1, “GLUCAGON-LIKE PEPTIDE-1 RECEPTOR MODULATORS AND USES THEREOF” (HEPAGENE THERAPEUTICS (HK) LIMITED, priority 2021, published 2024).

Each molecule was assayed against GLP1R (Homo sapiens, UniProt P43220) (assay: GLP1R/CRE-Luc luciferase reporter gene assay (agonist activity)). Conditions: HKE293-Human GLP1R/CRE-luc cells, 5 h at 37° C., read-out: EC50 (nM) Assay 2.
GLP1R, sequence (P43220 24-463): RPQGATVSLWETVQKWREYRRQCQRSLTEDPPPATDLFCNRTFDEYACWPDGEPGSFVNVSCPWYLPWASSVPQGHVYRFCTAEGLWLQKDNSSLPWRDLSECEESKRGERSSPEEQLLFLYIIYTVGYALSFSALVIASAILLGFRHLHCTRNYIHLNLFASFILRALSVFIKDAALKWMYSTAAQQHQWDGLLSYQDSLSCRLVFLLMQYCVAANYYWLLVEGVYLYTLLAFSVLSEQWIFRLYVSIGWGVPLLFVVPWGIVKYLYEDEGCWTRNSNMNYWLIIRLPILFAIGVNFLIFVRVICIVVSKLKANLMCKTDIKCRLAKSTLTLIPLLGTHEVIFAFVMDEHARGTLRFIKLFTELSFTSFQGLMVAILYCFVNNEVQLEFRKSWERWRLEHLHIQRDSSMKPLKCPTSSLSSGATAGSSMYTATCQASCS
Format: cell-based
Set-up: host or cells: HKE293 (so in the source)
Experimental: GLP1R-mediated agonist activity was determined with a cell-based functional assay utilizing a britelite plus luciferase reporter gene assay system. The stable cell line overexpress GLP1R and target response element. The stimulation with GLP1R agonist results in the upregulation of intracellular cAMP, which regulate the activities of cAMP-response element binding protein (CREB) and CREB-Luc. Reagents and equipment used in the assay are listed below, followed by the protocol.
• 1) Cell Line: HKE293-Human GLP1R/CRE-luc • 2) Complete Medium: DMEM+10% FBS+1×Penicillin-Streptomycin+400 μg/mL G418
• a) Seed HKE293-Human GLP1R/CRE-luc cells at 20,000 cells/well into 384 well assay plate (6007680-50, PE) using complete medium and incubate overnight. • b) Prepare 6×compound working solution with Medium. • c) Add 5 μL 6×compound working solution into cell plate, incubate 5 h at 37° C. • d) Add 20 μl britelite plus Luciferase Assay Reagent into each well of 384-well assay plate. • e) Record the luminescence value on Envision plate reader.
• 3.1% Activity is calculated as follow:
% Activity=(Signalcmpd−SignalAve_VC)/(SignalAve_PC−SignalAve_VC)×100. • 3.2 Calculate EC50 and Plot effect-dose curve of cmpds:
Y=Bottom+(Top−Bottom)/(1+10^((Log EC50−X)*HillSlope)) • X: log of agonist concentration; Y: % Activity.
Work on `COc1cc(C#N)ccc1COc1cccc(C23CCN(Cc4nc5ccc(C(=O)O)cc5n4C[C@@H]4CCO4)CC2C3)n1` (single isomer, unassigned) [Compound 1-6-A] yielded an EC50 of 5.55 nM. `COc1cc(C#N)ccc1COc1cccc(C23CCN(Cc4nc5ccc(C(=O)O)cc5n4C[C@@H]4CCO4)CC2C3)n1` (single isomer, unassigned) [Compound 1-6-B] gave an EC50 of 4.98 nM. With `COc1cc(C#N)ccc1COc1ccnc(C23CCN(Cc4nc5ccc(C(=O)O)cc5n4C[C@@H]4CCO4)CC2C3)n1` (single isomer, unassigned) [Compound 1-26-A] the EC50 was 102 nM. Molecule `COc1cc(C#N)ccc1COc1ccnc(C23CCN(Cc4nc5ccc(C(=O)O)cc5n4C[C@@H]4CCO4)CC2C3)n1` (single isomer, unassigned) [Compound 1-26-B] has an EC50 of 7.54 nM. `COc1cc(C#N)ccc1COc1ccnc(C23CCN(Cc4nc5c(OC)cc(C(=O)O)cc5n4C[C@@H]4CCO4)CC2C3)n1` (single isomer, unassigned) [Compound 1-38-A] was tested, and the EC50 was 16 nM. In the case of `COc1cc(C#N)ccc1COc1ccnc(C23CCN(Cc4nc5c(OC)cc(C(=O)O)cc5n4C[C@@H]4CCO4)CC2C3)n1` (single isomer, unassigned) [Compound 1-38-B], the EC50 is reported as 0.28 nM. In the case of `COc1cc(Cl)ccc1COc1cccc(C23CCN(Cc4nc5ccc(C(=O)O)cc5n4C[C@@H]4CCO4)CC2C3)n1` (stereo partly drawn) [Compound 1-12, 2-((6-(6-((4-chloro-2-methoxybenzyl)oxy)pyridin-2-yl)-3-azabicyclo[4.1.0]heptan-3-yl)methyl)-1-(((S)-oxetan-2-yl)methyl)-1H-benzo[d]imidazole-6-carboxylic acid], the EC50 is reported as 26.4 nM. For `COc1nc(C#N)ccc1COc1cccc(C23CCN(Cc4nc5ccc(C(=O)O)cc5n4C[C@@H]4CCO4)CC2C3)n1` (stereo partly drawn) [Compound 1-13, 2-((6-(6-((6-cyano-2-methoxypyridin-3-yl)methoxy)pyridin-2-yl)-3-azabicyclo[4.1.0]heptan-3-yl)methyl)-1-(((S)-oxetan-2-yl)methyl)-1H-benzo[d]imidazole-6-carboxylic acid], the EC50 was 35.8 nM. `COc1cc(C(F)(F)F)ccc1COc1cccc(C23CCN(Cc4nc5ccc(C(=O)O)cc5n4C[C@@H]4CCO4)CC2C3)n1` (stereo partly drawn) [Compound 1-14, 2-((6-(6-((2-methoxy-4-(trifluoromethyl)benzyl)oxy)pyridin-2-yl)-3-azabicyclo[4.1.0]heptan-3-yl)methyl)-1-(((S)-oxetan-2-yl)methyl)-1H-benzo[d]imidazole-6-carboxylic acid] showed an EC50 of 17.4 nM. With `COCc1ccc(COc2cccc(C34CCN(Cc5nc6ccc(C(=O)O)cc6n5C[C@@H]5CCO5)CC3C4)n2)c(OC)c1` (stereo partly drawn) [Compound 1-15, 2-((6-(6-((2-methoxy-4-(methoxymethyl)benzyl)oxy)pyridin-2-yl)-3-azabicyclo[4.1.0]heptan-3-yl)methyl)-1-(((S)-oxetan-2-yl)methyl)-1H-benzo[d]imidazole-6-carboxylic acid] the EC50 was 439 nM. Work on `COc1cc(Br)ccc1COc1cccc(C23CCN(Cc4nc5ccc(C(=O)O)cc5n4C[C@@H]4CCO4)CC2C3)n1` (stereo partly drawn) [Compound 1-16, 2-((6-(6-((4-bromo-2-methoxybenzyl)oxy)pyridin-2-yl)-3-azabicyclo[4.1.0]heptan-3-yl)methyl)-1-(((S)-oxetan-2-yl)methyl)-1H-benzo[d]imidazole-6-carboxylic acid] yielded an EC50 of 24.8 nM. `COc1cc(C#N)ccc1COc1cccc(C23CCN(Cc4nc5c(C#N)cc(C(=O)O)cc5n4C[C@@H]4CCO4)CC2C3)n1` (stereo partly drawn) [Compound 1-17, 4-cyano-2-((6-(6-((4-cyano-2-methoxybenzyl)oxy)pyridin-2-yl)-3-azabicyclo[4.1.0]heptan-3-yl)methyl)-1-(((S)-oxetan-2-yl)methyl)-1H-benzo[d]imidazole-6-carboxylic acid] was tested, and the EC50 was 6.66 nM. With `COc1cc(C#N)ccc1COc1cccc(C23CCN(Cc4nc5c(C)cc(C(=O)O)cc5n4C[C@@H]4CCO4)CC2C3)n1` (stereo partly drawn) [Compound 1-18, 2-((6-(6-((4-cyano-2-methoxybenzyl)oxy)pyridin-2-yl)-3-azabicyclo[4.1.0]heptan-3-yl)methyl)-4-methyl-1-(((S)-oxetan-2-yl)methyl)-1H-benzo[d]imidazole-6-carboxylic acid] the EC50 was 13.4 nM. For `COc1cc(C#N)ccc1COc1cccc(C23CCN(Cc4nc5c(C6CC6)cc(C(=O)O)cc5n4C[C@@H]4CCO4)CC2C3)n1` (stereo partly drawn) [Compound 1-19, 2-((6-(6-((4-cyano-2-methoxybenzyl)oxy)pyridin-2-yl)-3-azabicyclo[4.1.0]heptan-3-yl)methyl)-4-cyclopropyl-1-(((S)-oxetan-2-yl)methyl)-1H-benzo[d]imidazole-6-carboxylic acid], the EC50 was 19 nM. `COc1cc(C#N)ccc1COc1cccc(C23CCN(Cc4nc5c(C(C)=O)cc(C(=O)O)cc5n4C[C@@H]4CCO4)CC2C3)n1` (stereo partly drawn) [Compound 1-20, 4-acetyl-2-((6-(6-((4-cyano-2-methoxybenzyl)oxy)pyridin-2-yl)-3-azabicyclo[4.1.0]heptan-3-yl)methyl)-1-(((S)-oxetan-2-yl)methyl)-1H-benzo[d]imidazole-6-carboxylic acid] was tested, and the EC50 was 9.67 nM. `COc1cc(C#N)ccc1COc1cncc(C23CCN(Cc4nc5ccc(C(=O)O)cc5n4C[C@@H]4CCO4)CC2C3)n1` (stereo partly drawn) [Compound 1-21, 2-((6-(6-((4-cyano-2-methoxybenzyl)oxy)pyrazin-2-yl)-3-azabicyclo[4.1.0]heptan-3-yl)methyl)-1-(((S)-oxetan-2-yl)methyl)-1H-benzo[d]imidazole-6-carboxylic acid] showed an EC50 of 39.1 nM. With `COc1cc(C#N)ccc1COc1cccc(C23CCN(Cc4nc5c(OC(F)(F)F)cc(C(=O)O)cc5n4C[C@@H]4CCO4)CC2C3)n1` (stereo partly drawn) [Compound 1-22, 2-((6-(6-((4-cyano-2-methoxybenzyl)oxy)pyridin-2-yl)-3-azabicyclo[4.1.0]heptan-3-yl)methyl)-1-(((S)-oxetan-2-yl)methyl)-4-(trifluoromethoxy)-1H-benzo[d]imidazole-6-carboxylic acid] the EC50 was 14.4 nM. `COc1cc(C#N)ccc1COc1cccc(C23CCN(Cc4nc5c(F)cc(C(=O)O)cc5n4C[C@@H]4CCO4)CC2C3)n1` (stereo partly drawn) [Compound 1-23, 2-((6-(6-((4-cyano-2-methoxybenzyl)oxy)pyridin-2-yl)-3-azabicyclo[4.1.0]heptan-3-yl)methyl)-4-fluoro-1-(((S)-oxetan-2-yl)methyl)-1H-benzo[d]imidazole-6-carboxylic acid] showed an EC50 of 3.05 nM. Molecule `COc1cc(C#N)ccc1COc1cccc(C23CCN(Cc4nc5c(OC)cc(C(=O)O)cc5n4C[C@@H]4CCO4)CC2C3)n1` (stereo partly drawn) [Compound 1-24, 2-((6-(6-((4-cyano-2-methoxybenzyl)oxy)pyridin-2-yl)-3-azabicyclo[4.1.0]heptan-3-yl)methyl)-4-methoxy-1-(((S)-oxetan-2-yl)methyl)-1H-benzo[d]imidazole-6-carboxylic acid] has an EC50 of 0.37 nM. `COc1cc(C#N)ccc1COc1cccc(C23CCN(Cc4nc5c(Cl)cc(C(=O)O)cc5n4C[C@@H]4CCO4)CC2C3)n1` (stereo partly drawn) [Compound 1-25, 4-chloro-2-((6-(6-((4-cyano-2-methoxybenzyl)oxy)pyridin-2-yl)-3-azabicyclo[4.1.0]heptan-3-yl)methyl)-1-(((S)-oxetan-2-yl)methyl)-1H-benzo[d]imidazole-6-carboxylic acid] was tested, and the EC50 was 0.95 nM. Molecule `COc1cc(C#N)ccc1COc1nccc(C23CCN(Cc4nc5ccc(C(=O)O)cc5n4C[C@@H]4CCO4)CC2C3)n1` (stereo partly drawn) [Compound 1-27, 2-((6-(2-((4-cyano-2-methoxybenzyl)oxy)pyrimidin-4-yl)-3-azabicyclo[4.1.0]heptan-3-yl)methyl)-1-(((S)-oxetan-2-yl)methyl)-1H-benzo[d]imidazole-6-carboxylic acid] has an EC50 of 11.7 nM. In the case of `COc1cc(C#N)ccc1COc1nc(C23CCN(Cc4nc5c(OC)cc(C(=O)O)cc5n4C[C@@H]4CCO4)CC2C3)ccc1F` (stereo partly drawn) [Compound 1-28, 2-((6-(6-((4-cyano-2-methoxybenzyl)oxy)-5-fluoropyridin-2-yl)-3-azabicyclo[4.1.0]heptan-3-yl)methyl)-4-methoxy-1-(((S)-oxetan-2-yl)methyl)-1H-benzo[d]imidazole-6-carboxylic acid], the EC50 is reported as 0.46 nM. `COc1c(COc2cccc(C34CCN(Cc5nc6ccc(C(=O)O)cc6n5C[C@@H]5CCO5)CC3C4)n2)ccc(C#N)c1F` (stereo partly drawn) [Compound 1-29, 2-((6-(6-((4-cyano-3-fluoro-2-methoxybenzyl)oxy)pyridin-2-yl)-3-azabicyclo[4.1.0]heptan-3-yl)methyl)-1-(((S)-oxetan-2-yl)methyl)-1H-benzo[d]imidazole-6-carboxylic acid] showed an EC50 of 168 nM. `COc1cc(C#N)ccc1COc1nc(C23CCN(Cc4nc5c(OC)cc(C(=O)O)cc5n4C[C@@H]4CCO4)CC2C3)ccc1OC` (stereo partly drawn) [Compound 1-30, 2-((6-(6-((4-cyano-2-methoxybenzyl)oxy)-5-methoxypyridin-2-yl)-3-azabicyclo[4.1.0]heptan-3-yl)methyl)-4-methoxy-1-(((S)-oxetan-2-yl)methyl)-1H-benzo[d]imidazole-6-carboxylic acid] was tested, and the EC50 was 28.1 nM.
